Measurements taken from article PMC10794137, “A new antibiotic traps lipopolysaccharide in its intermembrane transporter” (Nature, 2024).
Values joined by “and” are separate entries in the source; they are usually repeats but may differ in a detail not shown here. Equal values may be shown once.

Key:
[1] = system: Acinetobacter baylyi ΔlpxM; assay: MIC by broth microdilution, A. baylyi ΔlpxM; assay type: cell-based
Experimental: Culture, genetic manipulation and MIC measurements of A. baylyi ADP1 were conducted according to previously reported procedures[46],[51]. Point mutants were constructed in a two-step procedure following ref. [52] with the introduction and excision of the integration cassette at codon 66 of pepA, wherein the excising fragment of otherwise wild-type chromosomal DNA sequence from codon 406 of pepA to codon 193 of lptG bore the desired mutation and the resulting clones were screened by amplicon sequencing from codon 81 of HolC to codon 501 of GpmI, whereas lpxM deletion was achieved following the same procedure except that the integration cassette insertion and excision removed codons 79–279 of lpxM to avoid interference with neighbouring and overlapping genes that a larger deletion may risk and replaced codon 78 with an ochre stop codon to prevent a readthrough resulting in an aberrant fusion, with the excising fragment sequence spanning from codon 211 of sppA to codon 497 of ComA and verified by amplicon sequencing from codon 94 of MhpC to codon 327 of ComA as well as by absence of a PCR product corresponding to a region spanning codons 79 to 279 of lpxM to check for duplications. A deletion of the lon protease was made in the same manner to produce the stain used for expression and purification of LptB2FG to mimic the BL21 strain of E. coli used in the rest of purifications, for which the region encompassing 72 base pairs (bp) upstream of the lon start codon and 1 bp downstream of the lon stop codon was excised after being replaced with the same integration cassette, yielding a markerless deletion, with the excising fragment sequence spanning from codon 491 of ArnT to codon 40 of 45_DOPA_Dioxygenase and verified by amplicon sequencing spanning from codon 322 of ArnT to codon 221 of 45_DOPA_Dioxygenase as well as by absence of a PCR product corresponding to a region spanning from codons 328 to 768 of lon to check for duplications. Following amplicon confirmation, three validated isolates of each constructed mutant were tested for susceptibility to a panel of antibiotics with […] known mechanisms of action as a further validation step to ensure congruence of phenotypes across replicates, which was confirmed in all cases and one of the validated replicates was later used for MIC measurements reported here.
MIC determinations were performed by broth microdilution in line with CLSI guidelines (CLSI M07-A11 2018). Bacterial inocula were prepared by diluting overnight liquid cultures in LB. Antibacterial panels containing antibacterial solutions were inoculated with an appropriate volume of inoculum to give a final inoculum of about 5 × 10^5 c.f.u. ml^−1 and desired test concentrations of antibacterial agents in standard 96-well plates with 0.1 ml of culture per well. The test plates were incubated for 20–24 h and optical density (OD600) was recorded using a plate reader. MIC values corresponded to the lowest compound concentration inhibiting bacterial growth beyond which OD ceased to decrease.

LptB2F^I317NGC = assay: LPS release assay, LptB2F(I317N)GC; assay type: biochemical, Acinetobacter baylyi; details: LptF I317N complex, E. coli LPS
Experimental: Proteoliposomes were prepared as described previously. Aqueous E. coli polar lipid extract (Avanti Polar Lipids) (30 mg ml^−1) and aqueous LPS from E. coli EH100 (Ra mutant; Sigma) (2 mg ml^−1) were sonicated briefly for homogenization. For experiments testing the effect of LPS structure, we used LPS isolated from either GKM374 (BL21DE3 eptA::catR arnA::kanR eptC::gentR) or TXM418 (BL21DE3 eptA::catR arnA::FRT eptB::gentR lpxM::kanR) as described previously. A mixture of 20 mM Tris-HCl (pH 8.0), 150 mM NaCl, 7.5 mg ml^−1 of E. coli polar lipids, 0.5 mg ml^−1 of LPS and 0.25% DDM was prepared and kept on ice for 10 min. Purified LptB2FGC or LptB2FG was added to a final concentration of 0.86 μM and the mixture was left on ice for 20 min. The mixture was diluted 100-fold with cold 20 mM Tris-HCl (pH 8.0) and 150 mM NaCl and kept on ice for 20 min. The proteoliposomes were pelleted (300,000g, 2 h, 4 °C), resuspended in 20 mM Tris-HCl (pH 8.0) and 150 mM NaCl, diluted 100× and centrifuged (300,000g, 2 h, 4 °C). The pellets were resuspended in a mixture of 20 mM Tris-HCl (pH 8.0), 150 mM NaCl and 10% glycerol (250 μl per 100 μl of the original predilution solution), homogenized by sonication, flash frozen and stored at −80 °C until use.
The amounts of release of LPS from proteoliposomes to LptA were measured as previously described. […]

CN1C(=O)[C@H](CCCCN)NC(=O)[C@H](CCCN)NCc2cccnc2Sc2c(Cl)ccc(-c3ccc(N)nc3)c2CNC(=O)[C@@H]1Cc1c[nH]c2ccccc12 [Compound 1]
Fold less susceptible than wild type ([1]; A. baylyi lpxM deletion strain vs wild type): 30 fold | MIC ([1]; A. baylyi ΔlpxM): 0.3 µM and 0.2 µg/mL | Inhibition of LPS release to LptA (LptB2F^I317NGC): did not block LPS release
